Measurements: PubChem BioAssay (NCI)
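1) Cells in 96-well plates. 2) Compound, 48 h, 5 concentrations. 3) Linear interpolation between surrounding doses. 4) Unreached endpoint = highest concentration. At the TGI there is no net growth.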

Assays:
Test in all cases: NCI-60 cell line screen, 48 h
[1] = system: SF-268 CNS
[2] = system: SK-OV-3 ovarian
[3] = system: HS 578T breast
[4] = system: CAKI-1 renal
[5] = system: UO-31 renal
[6] = system: U251 CNS
[7] = system: A549 NSCLC
[8] = system: NCI-H460 lung
[9] = system: UACC-62 melanoma
[10] = system: BT-549 breast
[11] = system: SNB-75 CNS
[12] = system: HOP-62 NSCLC
[13] = system: SF-539 CNS
[14] = system: NCI/ADR-RES ovarian
[15] = system: KM12 colon
[16] = system: OVCAR-4 ovarian
[17] = system: HT29 colon
[18] = system: EKVX NSCLC
[19] = system: SK-MEL-5 melanoma
[20] = system: HCT-116 colon
[21] = system: RXF 393 renal
[22] = system: DU-145 prostate
[23] = system: OVCAR-8 ovarian
[24] = system: MDA-N
[25] = system: PC-3 prostate
[26] = system: MDA-MB-231 breast
[27] = system: T-47D breast
[28] = system: A498 renal
[29] = system: MDA-MB-435
[30] = system: CCRF-CEM leukemia
[31] = system: MCF7 breast
[32] = system: SK-MEL-2 melanoma
[33] = system: SNB-19 CNS
[34] = system: MALME-3M melanoma
[35] = system: UACC-257 melanoma
[36] = system: LOX IMVI melanoma
[37] = system: COLO 205 colon
[38] = system: MOLT-4 leukemia
[39] = system: TK-10 renal
[40] = system: HL-60(TB) leukemia
[41] = system: SF-295 CNS
[42] = system: SW-620 colon
[43] = system: HOP-92 NSCLC
[44] = system: HCT-15 colon
[45] = system: OVCAR-5 ovarian
[46] = system: K-562 leukemia
[47] = system: 786-0 renal
[48] = system: OVCAR-3 ovarian
[49] = system: NCI-H226 lung
[50] = system: NCI-H23 lung
[51] = system: HCC-2998 colon
[52] = system: ACHN renal
[53] = system: RPMI-8226 leukemia
[54] = system: SN12C renal
[55] = system: IGROV1 ovarian
[56] = system: M14 melanoma
[57] = system: SK-MEL-28 melanoma
[58] = system: SR leukemia
[59] = system: NCI-H522 lung

COc1ccc(/C(=N/OCCCC(=O)O)c2cccs2)cc1
TGI [1]: > 100 µM | TGI [2]: > 100 µM | TGI [3]: > 100 µM | TGI [4]: > 100 µM | TGI [5]: > 100 µM | TGI [6]: > 100 µM | TGI [7]: > 100 µM | TGI [8]: > 100 µM | TGI [9]: > 100 µM | TGI [10]: > 100 µM | TGI [11]: > 100 µM | TGI [12]: > 100 µM | TGI [13]: > 100 µM | TGI [14]: > 100 µM | TGI [15]: > 100 µM | TGI [16]: > 100 µM | TGI [17]: > 100 µM | TGI [18]: > 100 µM | TGI [19]: > 100 µM | TGI [20]: > 100 µM | TGI [21]: > 100 µM | TGI [22]: > 100 µM | TGI [23]: > 100 µM | TGI [24]: > 100 µM | TGI [25]: > 100 µM | TGI [26]: > 100 µM | TGI [27]: > 100 µM | TGI [28]: > 100 µM | TGI [29]: > 100 µM | TGI [30]: > 100 µM | TGI [31]: > 100 µM | TGI [32]: > 100 µM | TGI [33]: > 100 µM | TGI [34]: > 100 µM | TGI [35]: > 100 µM | TGI [36]: > 100 µM | TGI [37]: > 100 µM | TGI [38]: > 100 µM | TGI [39]: > 100 µM | TGI [40]: > 100 µM | TGI [41]: > 100 µM | TGI [42]: > 100 µM | TGI [43]: > 100 µM | TGI [44]: > 100 µM | TGI [45]: > 100 µM | TGI [46]: > 100 µM | TGI [47]: > 100 µM | TGI [48]: > 100 µM | TGI [49]: > 100 µM | TGI [50]: > 100 µM | TGI [51]: > 100 µM | TGI [52]: > 100 µM | TGI [53]: > 100 µM | TGI [54]: > 100 µM

C/C(CC(O)(C(F)(F)F)C(F)(F)F)=N\NC(N)=S
TGI [55]: > 10 µM | TGI [1]: > 10 µM | TGI [2]: > 10 µM | TGI [3]: > 10 µM | TGI [4]: > 10 µM | TGI [5]: > 10 µM | TGI [6]: > 10 µM | TGI [7]: > 10 µM | TGI [8]: > 10 µM | TGI [9]: > 10 µM | TGI [56]: > 10 µM | TGI [11]: > 10 µM | TGI [12]: > 10 µM | TGI [13]: > 10 µM | TGI [57]: > 10 µM | TGI [14]: > 10 µM | TGI [15]: > 10 µM | TGI [16]: > 10 µM | TGI [17]: > 10 µM | TGI [18]: > 10 µM | TGI [19]: > 10 µM | TGI [58]: > 10 µM | TGI [20]: > 10 µM | TGI [21]: > 10 µM | TGI [22]: > 10 µM | TGI [23]: > 10 µM | TGI [24]: > 10 µM | TGI [25]: > 10 µM | TGI [26]: > 10 µM | TGI [27]: > 10 µM | TGI [28]: > 10 µM | TGI [29]: > 10 µM | TGI [30]: > 10 µM | TGI [31]: > 10 µM | TGI [32]: > 10 µM | TGI [59]: > 10 µM | TGI [33]: > 10 µM | TGI [34]: > 10 µM | TGI [35]: > 10 µM | TGI [36]: > 10 µM | TGI [37]: > 10 µM | TGI [38]: > 10 µM | TGI [39]: > 10 µM | TGI [40]: > 10 µM | TGI [41]: > 10 µM | TGI [42]: > 10 µM | TGI [43]: > 10 µM | TGI [44]: > 10 µM | TGI [46]: > 10 µM | TGI [47]: > 10 µM | TGI [48]: > 10 µM | TGI [49]: > 10 µM | TGI [50]: > 10 µM | TGI [51]: > 10 µM | TGI [52]: > 10 µM | TGI [53]: > 10 µM | TGI [54]: > 10 µM

C[C@H](CCC(=O)O)[C@H]1CC[C@H]2[C@@H]3[C@@H](O)C[C@@H]4C[C@H](O)CC[C@]4(C)[C@H]3C[C@H](O)[C@]12C
TGI [55]: > 100 µM | TGI [1]: > 100 µM | TGI [3]: > 100 µM | TGI [4]: > 100 µM | TGI [6]: > 100 µM | TGI [7]: > 100 µM | TGI [8]: > 100 µM | TGI [9]: > 100 µM | TGI [56]: > 100 µM | TGI [11]: > 100 µM | TGI [12]: > 100 µM | TGI [13]: > 100 µM | TGI [57]: > 100 µM | TGI [14]: > 100 µM | TGI [15]: > 100 µM | TGI [16]: > 100 µM | TGI [17]: > 100 µM | TGI [18]: > 100 µM | TGI [58]: > 100 µM | TGI [20]: > 100 µM | TGI [21]: > 100 µM | TGI [22]: > 100 µM | TGI [23]: > 100 µM | TGI [24]: > 100 µM | TGI [25]: > 100 µM | TGI [26]: > 100 µM | TGI [27]: > 100 µM | TGI [28]: > 100 µM | TGI [29]: > 100 µM | TGI [30]: > 100 µM | TGI [31]: > 100 µM | TGI [32]: > 100 µM | TGI [59]: > 100 µM | TGI [33]: > 100 µM | TGI [34]: > 100 µM | TGI [35]: > 100 µM | TGI [36]: > 100 µM | TGI [37]: > 100 µM | TGI [38]: > 100 µM | TGI [39]: > 100 µM | TGI [40]: > 100 µM | TGI [42]: > 100 µM | TGI [43]: > 100 µM | TGI [44]: > 100 µM | TGI [45]: > 100 µM | TGI [46]: > 100 µM | TGI [47]: > 100 µM | TGI [49]: > 100 µM | TGI [50]: > 100 µM | TGI [51]: > 100 µM | TGI [52]: > 100 µM | TGI [53]: > 100 µM | TGI [54]: > 100 µM

CC(=O)OCCCCn1nncc1Cn1ccc(=O)n(Cc2cnnn2CCCCOC(C)=O)c1=O
TGI [55]: > 100 µM | TGI [1]: > 100 µM | TGI [2]: > 100 µM | TGI [3]: > 100 µM | TGI [4]: > 100 µM | TGI [5]: > 100 µM | TGI [6]: > 100 µM | TGI [7]: > 100 µM | TGI [56]: > 100 µM | TGI [10]: > 100 µM | TGI [11]: > 100 µM | TGI [12]: > 100 µM | TGI [13]: > 100 µM | TGI [57]: > 100 µM | TGI [14]: > 100 µM | TGI [15]: > 100 µM | TGI [16]: > 100 µM | TGI [18]: > 100 µM | TGI [19]: > 100 µM | TGI [20]: > 100 µM | TGI [21]: > 100 µM | TGI [22]: > 100 µM | TGI [23]: > 100 µM | TGI [24]: > 100 µM | TGI [25]: > 100 µM | TGI [26]: > 100 µM | TGI [27]: > 100 µM | TGI [28]: > 100 µM | TGI [29]: > 100 µM | TGI [30]: 2.61 µM | TGI [31]: > 100 µM | TGI [32]: > 100 µM | TGI [33]: > 100 µM | TGI [34]: > 100 µM | TGI [35]: > 100 µM | TGI [36]: > 100 µM | TGI [37]: > 100 µM | TGI [38]: > 100 µM | TGI [39]: > 100 µM | TGI [41]: > 100 µM | TGI [42]: > 100 µM | TGI [43]: > 100 µM | TGI [44]: > 100 µM | TGI [45]: > 100 µM | TGI [47]: > 100 µM | TGI [48]: > 100 µM | TGI [49]: > 100 µM | TGI [50]: > 100 µM | TGI [51]: > 100 µM | TGI [52]: > 100 µM | TGI [53]: > 100 µM | TGI [54]: > 100 µM
